From ChEMBL document CHEMBL5291721, “A preclinical secondary pharmacology resource illuminates target-adverse drug reaction associations of marketed drugs” (Nat Commun, 2023) come the findings set out here.

Assay [1] addresses Voltage-dependent L-type calcium channel subunit alpha-1C (Homo sapiens, UniProt Q13936). It counts as functional, cell-based.
Assay [2] addresses T1, Prostaglandin G/H synthase 1 (Rattus norvegicus, UniProt Q63921).
T1 sequence (Q63921 whole entry): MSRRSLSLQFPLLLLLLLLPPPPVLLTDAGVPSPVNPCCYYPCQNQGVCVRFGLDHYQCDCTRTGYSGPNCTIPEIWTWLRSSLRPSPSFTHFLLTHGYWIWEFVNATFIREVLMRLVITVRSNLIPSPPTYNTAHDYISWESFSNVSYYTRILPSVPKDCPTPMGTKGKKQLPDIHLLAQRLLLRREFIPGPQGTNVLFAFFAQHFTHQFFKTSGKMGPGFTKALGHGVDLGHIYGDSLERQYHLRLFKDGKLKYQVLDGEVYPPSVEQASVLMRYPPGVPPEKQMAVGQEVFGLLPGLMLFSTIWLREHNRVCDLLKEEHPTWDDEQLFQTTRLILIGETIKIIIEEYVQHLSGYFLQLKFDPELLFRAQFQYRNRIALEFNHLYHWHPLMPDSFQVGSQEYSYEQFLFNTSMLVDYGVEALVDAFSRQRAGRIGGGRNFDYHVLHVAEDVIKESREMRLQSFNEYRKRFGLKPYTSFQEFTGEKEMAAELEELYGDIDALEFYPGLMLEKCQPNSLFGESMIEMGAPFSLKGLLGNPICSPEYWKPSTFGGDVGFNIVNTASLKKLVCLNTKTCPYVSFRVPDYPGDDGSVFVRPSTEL
It is filed as functional.

The target in assay [3] is 5-hydroxytryptamine receptor 5A (Homo sapiens, UniProt P47898).
The target of assay [4] is Hydroxycarboxylic acid receptor 2 (Homo sapiens, UniProt Q8TDS4).
In assay [5] the target is Cannabinoid receptor 1 (Homo sapiens, UniProt P21554). It counts as functional.
Assay [6] concerns the target T2, D(1A) dopamine receptor (Homo sapiens, UniProt P21728). It is filed as functional, cell-based.
The target in assay [7] is T2, D(1A) dopamine receptor.
Assay [8] addresses T3, Androgen receptor (Rattus norvegicus, UniProt P15207).
T3 sequence (P15207 whole entry): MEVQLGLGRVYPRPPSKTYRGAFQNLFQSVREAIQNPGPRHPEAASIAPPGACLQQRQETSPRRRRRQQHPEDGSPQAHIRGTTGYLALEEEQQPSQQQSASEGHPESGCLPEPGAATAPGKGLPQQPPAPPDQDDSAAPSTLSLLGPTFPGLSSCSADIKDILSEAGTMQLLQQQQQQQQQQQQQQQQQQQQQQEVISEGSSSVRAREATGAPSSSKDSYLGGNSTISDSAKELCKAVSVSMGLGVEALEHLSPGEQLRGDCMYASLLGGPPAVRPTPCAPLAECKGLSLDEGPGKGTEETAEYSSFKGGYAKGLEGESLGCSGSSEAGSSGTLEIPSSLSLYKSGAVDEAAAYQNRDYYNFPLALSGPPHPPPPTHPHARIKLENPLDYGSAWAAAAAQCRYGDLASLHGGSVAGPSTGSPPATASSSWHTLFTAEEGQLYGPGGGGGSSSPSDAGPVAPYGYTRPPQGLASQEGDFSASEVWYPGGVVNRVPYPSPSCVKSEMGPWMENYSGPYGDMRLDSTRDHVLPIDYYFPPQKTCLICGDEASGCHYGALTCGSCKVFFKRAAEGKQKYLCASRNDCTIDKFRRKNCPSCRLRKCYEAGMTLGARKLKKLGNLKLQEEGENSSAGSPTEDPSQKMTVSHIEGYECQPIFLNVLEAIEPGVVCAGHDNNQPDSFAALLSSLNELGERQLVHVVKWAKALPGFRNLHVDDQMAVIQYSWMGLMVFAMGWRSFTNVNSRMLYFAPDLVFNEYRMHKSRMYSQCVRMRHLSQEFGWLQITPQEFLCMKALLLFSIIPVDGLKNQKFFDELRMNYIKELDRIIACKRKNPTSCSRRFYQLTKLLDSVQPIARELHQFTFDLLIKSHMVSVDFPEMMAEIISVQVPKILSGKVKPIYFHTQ

Assay [9] addresses Vascular endothelial growth factor receptor 2 (Homo sapiens, UniProt P35968). It counts as functional.
The target in assay [10] is T4, Thromboxane A2 receptor (Homo sapiens, UniProt P21731).
T4 sequence (P21731 whole entry): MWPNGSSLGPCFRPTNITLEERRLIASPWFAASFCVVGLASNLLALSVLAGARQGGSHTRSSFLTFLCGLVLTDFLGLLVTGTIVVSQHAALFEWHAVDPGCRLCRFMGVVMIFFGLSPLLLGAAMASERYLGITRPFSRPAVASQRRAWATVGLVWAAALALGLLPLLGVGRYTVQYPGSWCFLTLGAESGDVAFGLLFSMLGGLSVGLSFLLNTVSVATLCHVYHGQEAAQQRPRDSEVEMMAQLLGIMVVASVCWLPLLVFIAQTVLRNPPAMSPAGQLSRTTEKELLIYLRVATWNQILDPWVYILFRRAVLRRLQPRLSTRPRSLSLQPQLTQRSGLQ
It is filed as functional.

The target of assay [11] is T5, Muscarinic acetylcholine receptor M4 (Homo sapiens, UniProt P08173).
T5 sequence (P08173 whole entry): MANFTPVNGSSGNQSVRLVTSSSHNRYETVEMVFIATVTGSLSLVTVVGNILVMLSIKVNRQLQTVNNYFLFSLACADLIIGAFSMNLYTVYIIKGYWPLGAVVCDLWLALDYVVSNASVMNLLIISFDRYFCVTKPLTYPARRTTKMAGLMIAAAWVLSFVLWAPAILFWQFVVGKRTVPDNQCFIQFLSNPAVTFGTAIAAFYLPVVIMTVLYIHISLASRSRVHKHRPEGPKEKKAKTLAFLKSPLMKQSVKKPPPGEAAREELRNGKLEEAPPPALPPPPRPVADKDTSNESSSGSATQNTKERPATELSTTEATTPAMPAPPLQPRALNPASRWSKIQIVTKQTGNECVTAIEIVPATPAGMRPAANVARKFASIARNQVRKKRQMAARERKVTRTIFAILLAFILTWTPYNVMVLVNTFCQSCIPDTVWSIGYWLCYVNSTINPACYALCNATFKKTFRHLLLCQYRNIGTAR

Assay [12] concerns the target T3, Androgen receptor. It is filed as functional.
The target in assay [13] is T3, Androgen receptor. It counts as functional. The source holds these as a separate data set.
Also: assay procedure not described here.

T2 sequence (P21728 whole entry): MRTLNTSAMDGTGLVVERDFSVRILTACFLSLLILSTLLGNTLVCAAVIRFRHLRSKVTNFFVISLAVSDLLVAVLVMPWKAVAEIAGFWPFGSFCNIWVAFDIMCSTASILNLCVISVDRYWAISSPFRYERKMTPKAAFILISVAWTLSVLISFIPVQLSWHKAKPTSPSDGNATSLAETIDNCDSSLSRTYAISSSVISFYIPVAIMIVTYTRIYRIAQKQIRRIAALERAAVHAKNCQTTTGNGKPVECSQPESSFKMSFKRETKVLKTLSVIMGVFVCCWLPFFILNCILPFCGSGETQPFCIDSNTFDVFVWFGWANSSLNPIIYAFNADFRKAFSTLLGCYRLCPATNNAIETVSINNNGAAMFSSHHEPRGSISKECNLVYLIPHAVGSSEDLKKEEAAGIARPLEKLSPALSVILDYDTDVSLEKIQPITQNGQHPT
5-hydroxytryptamine receptor 5A, sequence (P47898 whole entry): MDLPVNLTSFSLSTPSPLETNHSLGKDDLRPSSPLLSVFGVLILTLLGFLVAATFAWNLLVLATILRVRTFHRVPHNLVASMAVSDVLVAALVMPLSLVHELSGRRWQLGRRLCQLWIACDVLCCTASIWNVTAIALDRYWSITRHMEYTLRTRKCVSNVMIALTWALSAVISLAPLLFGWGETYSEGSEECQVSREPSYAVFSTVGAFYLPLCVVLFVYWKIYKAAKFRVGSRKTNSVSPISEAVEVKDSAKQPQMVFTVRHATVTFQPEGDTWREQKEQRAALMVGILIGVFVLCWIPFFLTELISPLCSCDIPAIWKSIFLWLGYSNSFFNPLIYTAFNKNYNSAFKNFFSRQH
Hydroxycarboxylic acid receptor 2, sequence (Q8TDS4 whole entry): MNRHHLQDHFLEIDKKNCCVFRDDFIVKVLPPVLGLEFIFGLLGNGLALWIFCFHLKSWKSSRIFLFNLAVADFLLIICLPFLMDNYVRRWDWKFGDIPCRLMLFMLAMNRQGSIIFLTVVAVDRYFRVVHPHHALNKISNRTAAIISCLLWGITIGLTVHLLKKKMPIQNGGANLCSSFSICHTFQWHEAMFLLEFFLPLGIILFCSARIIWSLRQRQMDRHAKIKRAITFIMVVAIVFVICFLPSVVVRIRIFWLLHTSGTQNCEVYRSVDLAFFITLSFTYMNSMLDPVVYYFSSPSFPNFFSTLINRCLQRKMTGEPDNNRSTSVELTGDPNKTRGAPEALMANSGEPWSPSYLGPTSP
Cannabinoid receptor 1, sequence (P21554 whole entry): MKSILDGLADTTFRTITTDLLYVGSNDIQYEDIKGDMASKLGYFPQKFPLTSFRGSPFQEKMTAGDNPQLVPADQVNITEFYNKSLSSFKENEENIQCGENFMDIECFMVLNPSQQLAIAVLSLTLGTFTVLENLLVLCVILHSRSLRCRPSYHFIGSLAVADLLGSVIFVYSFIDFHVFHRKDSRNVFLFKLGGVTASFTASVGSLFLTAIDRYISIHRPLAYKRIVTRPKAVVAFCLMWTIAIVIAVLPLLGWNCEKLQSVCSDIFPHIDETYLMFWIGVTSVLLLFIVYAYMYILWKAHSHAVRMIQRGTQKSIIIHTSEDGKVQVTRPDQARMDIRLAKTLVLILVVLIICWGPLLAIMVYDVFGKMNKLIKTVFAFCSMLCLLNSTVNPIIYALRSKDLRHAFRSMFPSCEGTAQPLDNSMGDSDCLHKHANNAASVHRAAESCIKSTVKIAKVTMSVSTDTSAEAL
Vascular endothelial growth factor receptor 2, sequence (P35968 whole entry): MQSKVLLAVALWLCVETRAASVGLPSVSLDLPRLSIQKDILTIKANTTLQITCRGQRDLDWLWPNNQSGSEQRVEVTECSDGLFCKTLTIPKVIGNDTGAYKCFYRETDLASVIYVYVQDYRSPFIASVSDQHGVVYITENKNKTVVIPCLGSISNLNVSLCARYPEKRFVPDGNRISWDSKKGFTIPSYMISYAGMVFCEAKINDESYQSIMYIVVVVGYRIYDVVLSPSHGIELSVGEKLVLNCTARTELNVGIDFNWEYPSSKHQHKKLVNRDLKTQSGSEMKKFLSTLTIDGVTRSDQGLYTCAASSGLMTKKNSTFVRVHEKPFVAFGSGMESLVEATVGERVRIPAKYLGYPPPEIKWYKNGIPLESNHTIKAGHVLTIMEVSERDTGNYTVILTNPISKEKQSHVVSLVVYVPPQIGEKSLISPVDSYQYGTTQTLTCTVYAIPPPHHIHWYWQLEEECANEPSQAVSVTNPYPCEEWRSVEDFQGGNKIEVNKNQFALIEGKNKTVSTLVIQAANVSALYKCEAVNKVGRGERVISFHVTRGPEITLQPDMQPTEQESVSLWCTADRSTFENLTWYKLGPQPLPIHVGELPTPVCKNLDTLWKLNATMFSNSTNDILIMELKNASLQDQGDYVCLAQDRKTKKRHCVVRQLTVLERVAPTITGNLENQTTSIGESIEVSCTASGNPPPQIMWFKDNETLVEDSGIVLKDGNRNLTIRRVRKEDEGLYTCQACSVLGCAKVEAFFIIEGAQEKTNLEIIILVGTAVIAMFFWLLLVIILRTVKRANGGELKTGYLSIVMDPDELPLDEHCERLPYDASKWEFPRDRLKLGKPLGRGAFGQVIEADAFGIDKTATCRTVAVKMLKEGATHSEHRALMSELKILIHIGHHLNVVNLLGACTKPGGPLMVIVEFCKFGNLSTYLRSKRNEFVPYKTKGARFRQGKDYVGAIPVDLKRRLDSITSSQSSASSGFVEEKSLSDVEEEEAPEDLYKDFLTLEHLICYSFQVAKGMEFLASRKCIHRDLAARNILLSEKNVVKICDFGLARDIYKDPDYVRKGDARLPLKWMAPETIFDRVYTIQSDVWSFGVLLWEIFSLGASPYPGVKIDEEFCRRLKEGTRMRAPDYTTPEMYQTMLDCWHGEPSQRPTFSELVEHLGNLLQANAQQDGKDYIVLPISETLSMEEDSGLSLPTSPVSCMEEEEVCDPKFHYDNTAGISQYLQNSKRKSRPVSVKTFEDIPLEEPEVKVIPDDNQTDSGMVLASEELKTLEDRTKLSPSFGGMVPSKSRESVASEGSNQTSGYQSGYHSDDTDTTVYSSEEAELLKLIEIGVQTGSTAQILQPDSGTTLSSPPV

For orientation: AC50 means the midpoint of the concentration-response curve, whichever way the signal moves. Turning to `CC[C@@H](C(N)=O)N1CCCC1=O`, the AC50 in [1] was > 50 µM.

Consider `CCCCCNC(=N)N/N=C/c1c[nH]c2ccc(OC)cc12` [TEGASEROD], for which the AC50 in assay [2] is > 30 µM; in assay [3] it was 0.19 µM.

Regarding `O=[N+]([O-])O[C@@H]1CO[C@H]2[C@@H]1OC[C@@H]2O` [ISOSORBIDE MONONITRATE], the AC50 in assay [4] was > 10 µM.

Take `O=[N+]([O-])c1cn2c(n1)OC[C@@H](OCc1ccc(OC(F)(F)F)cc1)C2` [PRETOMANID]: the AC50 in assay [5] was > 10 µM.

As to `C=CCN1C[C@H](C(=O)N(CCCN(C)C)C(=O)NCC)C[C@@H]2c3cccc4[nH]cc(c34)C[C@H]21` [CABERGOLINE], the AC50 in [6] was > 30 µM.

Regarding `CC(=O)c1ccc2c(c1)N(CCCN(C)C)c1ccccc1S2` [ACEPROMAZINE], the AC50 in [7] worked out at 0.066 µM; in [6], 1.4 µM.

`CCOc1ccc(Cc2cc([C@@H]3O[C@H](CO)[C@@H](O)[C@H](O)[C@H]3O)ccc2Cl)cc1` [DAPAGLIFLOZIN]: the AC50 in [8] is > 30 µM.

Take `COc1ccc(C(=O)Nc2ccccc2CCC2CCCCN2C)cc1` (stereo not drawn) [ENCAINIDE]: the AC50 in assay [4] was > 10 µM.

For the molecule `CCOc1ccccc1OCC1CNCCO1` (stereo not drawn) [VILOXAZINE], the AC50 in [9] was > 30 µM; in [10], > 30 µM; in [8], > 30 µM; in assay [11], > 10 µM; in assay [5], > 10 µM; in [3], > 10 µM.

Take `CN(C)CC/C=C1\c2ccccc2CSc2ccccc21` [DOTHIEPIN]: the AC50 in assay [12] and in assay [13] was > 30 µM each time.
